“And” between values parts separate entries of the source, which are not always exact repeats. Equal entries are not always repeated. Where two headings read alike, the source gives them in different places.
Experiments:
[1] = molecular target: T1, human μ-opioid (OP3) receptor (Homo sapiens, UniProt P35372); assay: cell-based; type: cell-based; parameters: Emax: dose or concentration left out as unconfirmed
[2] = molecular target: T2, human μ-opioid receptor (Homo sapiens, UniProt P35372); assay: biochemical; type: binding; conditions: for binding to the μ-opioid receptor: tested concentrations 10^−5–10^−10 M
T2 construct: purchased Perkin Elmer ES-542-M400UA; host or cells: CHO-K1 cells, stably transfected (membranes)
T2 sequence (P35372 whole entry): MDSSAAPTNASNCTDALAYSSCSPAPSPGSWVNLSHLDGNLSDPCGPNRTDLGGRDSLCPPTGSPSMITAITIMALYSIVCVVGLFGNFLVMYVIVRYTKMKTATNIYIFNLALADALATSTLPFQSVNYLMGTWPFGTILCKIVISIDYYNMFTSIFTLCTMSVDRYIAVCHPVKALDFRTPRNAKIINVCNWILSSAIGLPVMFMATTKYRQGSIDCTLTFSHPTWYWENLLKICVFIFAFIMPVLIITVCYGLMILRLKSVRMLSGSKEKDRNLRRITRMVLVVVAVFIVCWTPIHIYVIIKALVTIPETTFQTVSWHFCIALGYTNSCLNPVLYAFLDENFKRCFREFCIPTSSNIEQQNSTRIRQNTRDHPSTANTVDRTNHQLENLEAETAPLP
Description: The reaction was terminated by rapid filtration through GF/B filter mate presoaked with 0.5% polyethyleneimine for 30 min. […] Data were fitted to a one-site curve-fitting equation with Prism 6 (GraphPad Software), and Ki values were estimated from the Cheng–Prusoff equation.

[3] = molecular target: T1, human μ-opioid (OP3) receptor; assay: cell-based; conditions: for Emax at 0.03 µM / Emax: U2OS; for Emax at 0.03 µM: read-out: Emax% (EC87: 30 nM) Antagonist Mode
[4] = CHO-K1, read-out: Emax% Antagonist Mode
[5] = read-out: Emax% (EC20: 1 nM) Antagonist Mode
[6] = CHO-K1; read-out: Emax% Agonist Mode
[7] = CHO-K1; read-out: Emax% Antagonist Mode

T1 sequence (P35372 whole entry): as above

Structure (SMILES) | Emax% Antagonist Mode [1] | binding to the μ-opioid receptor [2] | Emax at 0.03 µM [3] [%] | Emax [3, 5] [%] | Emax ([3]; read-out: Emax% Agonist Mode) [%] | melting point [°C] | Emax [1, 6] [%] | Emax [1, 7] [%] | Emax at 0.0046 µM [1, 7] [%] | Emax at 0.03 µM [1, 7] [%] | further results
C[C@@H](NC(=O)[C@@H](N)Cc1ccc(O)cc1)C(=O)NCC(=O)N(C)[C@@H](Cc1ccccc1)C(=O)NCCO [DAMGO, (2S)-2-[[2-[[(2R)-2-[[(2S)-2-Amino-3-(4-hydroxyphenyl)propanoyl]-amino]-propanoyl]amino]acetyl]-methylamino]-N-(2-hydroxyethyl)-3-phenylpropanamide, reference compound] | 2% |  |  |  |  |  |  |  |  |  | EC20 of DAMGO [1]: 1 nM; EC80 of DAMGO [1]: 18 nM; EC87 of DAMGO [1]: 30 nM; Emax [1, 4]: 0%; Emax at 0.0046 µM [1, 4]: 0%
Cc1ccc(N2CCN3C(=O)C(=O)N=C32)cc1 [1c, 1-(4-methylphenyl)-2,3-dihydro-1H-imidazo[1,2-a]imidazole-5,6-dione] |  | No binding | 12 | 97 | 15 | 236 to 238 | 13 | 35 | 4 |  | pharmacological classification in words ([1]; from cAMP functional data (with binding data for the modulator conclusion)): weak antagonist properties; pharmacological classification in words ([1]; from cAMP functional data (with binding data for the modulator conclusion); listed as 1-(4-methylphenyl)-2,3-dihydro-1H-imidazo[1,2-a]imidazole-5,6-dione): negative allosteric modulator; Kb ([1]; pKb Range Antagonist Mode): 0.661 nM; Kb ([1]; read-out: pKb Range Antagonist Mode (converted)): 8.91 nM
Cc1cccc(N2CCN3C(=O)C(=O)N=C32)c1 [1b] | 5% | No binding | 12 | 94 | 13 | 220 to 223 | 13 | 10 | 6 |  | 
O=C1N=C2N(CCN2c2ccccc2)C1=O [1a] |  | No binding | 22 | 92 | 8 |  | 15 | 6 | 4 | 9 | 
O=C1N=C2N(CCN2c2cccc(Cl)c2)C1=O [1d] |  | No binding | 9 | 92 | 15 | 279 to 280 | 13 | 22 | 4 | 5 | 
O=C1N=C2N(CCN2c2ccc(Cl)cc2)C1=O [1e] | 3% | No binding | 19 | 89 | 14 |  | 13 | 8 | 12 | 5 | 
C[C@@H](O)[C@H](NC(=O)[C@H]1NC(=O)[C@H]([C@@H](C)O)NC(=O)[C@H](CCCNC(=N)N)NC(=O)[C@@H](Cc2c[nH]c3ccccc23)NC(=O)[C@H](Cc2ccc(O)cc2)NC(=O)[C@@H](NC(=O)[C@H](N)Cc2ccccc2)CSSC1(C)C)C(N)=O [CTAP, {d-Phe}-Cys-Tyr-{d-Trp}-Arg-Thr-{Pen}-Thr-NH2 (disulfide bridge: Cys2-Pen7), reference compound] |  |  |  |  |  |  |  |  |  |  | Ki [2]: 4.9 nM; Emax ([1]; CHO-K1, read-out: Emax% Agonist Mode): 12%; Emax [1, 4]: 100%; Emax at 0.0046 µM [1, 4]: 100%; Emax at 0.03 µM [1, 4]: 116%
COC(=O)/C=C/C(=O)N[C@@H]1CC[C@@]2(O)[C@H]3Cc4ccc(O)c5c4[C@@]2(CCN3CC2CC2)[C@H]1O5 [ß-FUNALTREXAMINE, beta-funaltrexamine, reference compound] | 66% and 40% and 46% and 42% |  |  |  |  |  |  |  |  |  | pKi Range [2]: 9.13 (9.10–9.15); Emax% (EC20: 1 nM) Antagonist Mode [3]: 122%; Emax% (EC87: 30 nM) Antagonist Mode [3]: 127%; Emax% Agonist Mode ([3]; β-arrestin recruitment, fraction of effect of DAMGO): 10%; Emax% Agonist Mode [1]: 17%

Reference: publication PMC9100072, “Modulation of the MOP Receptor (μ Opioid Receptor) by Imidazo[1,2-a]imidazole-5,6-Diones: In Search of the Elucidation of the Mechanism of Action” (Molecules, 2022)
